In PubChem BioAssay AID330 (DTP/NCI, 2004) one finds T/C data, which are given here for 24 compounds.

The test system of this test is P388 leukemia ip, CD2F1 mice, survival T/C. Briefly: NCI In Vivo Anticancer Drug Screen. Data for tumor model P388 Leukemia (intraperitoneal) in CD2F1 (CDF1) mice. As to conditions: endpoint: median survival time, higher = longer survival. In short, it runs like this: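 Mice carrying the transplanted tumor received test compound or vehicle. Survival was recorded in each group, and the value is the treated-group measurement divided by that of the vehicle-treated control group.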

[1] abbreviates: dose: 50.0 mg/kg/injection, schedule: Q01DX009 (ip), vehicle: Klucel (hydroxypropylcellulose) (HPC).
Where [2] appears, read: dose: 100.0 mg/kg/injection, schedule: Q01DX009 (ip), vehicle: Klucel (hydroxypropylcellulose) (HPC).
[3] abbreviates: dose: 200.0 mg/kg/injection, schedule: Q01DX009 (ip), vehicle: Klucel (hydroxypropylcellulose) (HPC).
The mark [4] stands for this setting: dose: 50.0 mg/kg/injection, schedule: Q01DX009 (ip), vehicle: saline with Tween-80.
The mark [5] stands for this setting: dose: 100.0 mg/kg/injection, schedule: Q01DX009 (ip), vehicle: saline with Tween-80.
[6] abbreviates: dose: 200.0 mg/kg/injection, schedule: Q01DX009 (ip), vehicle: saline with Tween-80.
The mark [7] stands for this setting: dose: 25.0 mg/kg/injection, schedule: Q01DX009 (ip), vehicle: saline with Tween-80.
Where [8] appears, read: dose: 60.0 mg/kg/injection, schedule: Q01DX005 (ip), vehicle: saline with Tween-80.
Setting [9] is: dose: 120.0 mg/kg/injection, schedule: Q01DX005 (ip), vehicle: saline with Tween-80.
The mark [10] stands for this setting: dose: 50.0 mg/kg/injection, schedule: Q01DX005 (ip), vehicle: saline with Tween-80.
Where [11] appears, read: dose: 50.0 mg/kg/injection, schedule: Q01DX005 (ip), vehicle: Klucel (hydroxypropylcellulose) (HPC).
[12] abbreviates: dose: 30.0 mg/kg/injection, schedule: Q01DX005 (ip), vehicle: saline with Tween-80.
Setting [13] is: dose: 240.0 mg/kg/injection, schedule: Q01DX005 (ip), vehicle: saline with Tween-80.

Values joined by “and” are separate entries in the source; they are usually repeats but may differ in a detail not shown here. Identical values can stand only once. Toxic doses and inconclusive results are not listed.

Consider `C=C1C(=O)O[C@@H]2/C=C(/C)[C@@]3(O)C=C[C@](C)(C[C@@H](OC(=O)/C(=C\C)COC(C)=O)[C@@H]12)O3`, for which the T/C by setting is: (dose: 2.5 mg/kg/injection, schedule: Q01DX009 (ip), vehicle: carboxymethylcellulose (CMC)) 106 % of control; (dose: 5.0 mg/kg/injection, schedule: Q01DX009 (ip), vehicle: carboxymethylcellulose (CMC)) 120 % of control; (dose: 10.0 mg/kg/injection, schedule: Q01DX009 (ip), vehicle: carboxymethylcellulose (CMC)) 101 % of control; (dose: 20.0 mg/kg/injection, schedule: Q01DX009 (ip), vehicle: carboxymethylcellulose (CMC)) 120 % of control.

Consider `COc1ccccc1N1C(=O)C(=O)C(C(C)=O)C1=O` (centres undefined), for which the T/C reads like this: under setting [1], 107 % of control; under setting [2], 106 % of control; under setting [3], 108 % of control.

On to `COc1cc2cc(c1Cl)N(C)C(=O)CC(O)C1(C)OC1C(C)C1CC(O)(NC(=O)O1)C(OC)/C=C/C=C(C)C2OC` (centres undefined), for which the T/C by setting is: (dose: 4.0 micrograms/kg/injection, schedule: Q01DX009 (ip), vehicle: distilled water + Tween-80 + alcohol) 97 % of control; (dose: 8.0 micrograms/kg/injection, schedule: Q01DX009 (ip), vehicle: distilled water + Tween-80 + alcohol) 104 % of control; (dose: 16.0 micrograms/kg/injection, schedule: Q01DX009 (ip), vehicle: distilled water + Tween-80 + alcohol) 97 % of control; (dose: 32.0 micrograms/kg/injection, schedule: Q01DX009 (ip), vehicle: distilled water + Tween-80 + alcohol) 107 % of control; (dose: 32.0 micrograms/kg/injection, schedule: Q01DX009 (ip), vehicle: distilled water + alcohol) 99 % of control; (dose: 64.0 micrograms/kg/injection, schedule: Q01DX009 (ip), vehicle: distilled water + alcohol) 101 % of control. In addition, for the setting “dose: 128.0 micrograms/kg/injection, schedule: Q01DX009 (ip), vehicle: distilled water + alcohol”, the T/C is 101 % of control.

`C=C1C(=O)OC2(CCCCC)CCCCC12` (centres undefined): the T/C is 96 % of control (dose: 50.0 mg/kg/injection, schedule: Q01DX009 (ip), vehicle: saline); 99 % of control (dose: 100.0 mg/kg/injection, schedule: Q01DX009 (ip), vehicle: saline); 96 % of control (dose: 200.0 mg/kg/injection, schedule: Q01DX009 (ip), vehicle: saline).

`O=C(Nc1ccc(Cc2ccc(NC(=O)Nc3cccnc3)cc2)cc1)Nc1cccnc1`: the T/C was 101 % of control under setting [1], 94 % of control under setting [2] and 88 % of control under setting [3].

With `N#CCC1(c2ccccc2)CCCCC1`, the T/C reads like this: under setting [4], 97 % of control; under setting [5], 107 % of control; under setting [6], 107 % of control.

Take `O=c1[nH]ccc2occc12`: the T/C was 100 % of control under setting [7], 100 % of control under setting [4] and 109 % of control under setting [5].

As for `CCOc1ccccc1NC(=O)/C(Cl)=C(\Cl)C(=O)O`, the T/C is, setting by setting: under setting [8], 109 % of control; under setting [9], 107 % of control.

Take `O=C(Nc1ccccc1C(F)(F)F)c1cccc(Cl)c1`: the T/C (dose: 100.0 mg/kg/injection, schedule: Q04DX003 (ip), vehicle: saline + alcohol) is 109 % of control; the T/C (dose: 200.0 mg/kg/injection, schedule: Q04DX003 (ip), vehicle: saline + alcohol) was 100 % of control; the T/C (dose: 400.0 mg/kg/injection, schedule: Q04DX003 (ip), vehicle: saline + alcohol) is 100 % of control.

Consider `CC(C)CC(C)C1CCC(C)C1CCC(C)OC=O` (centres undefined), for which the T/C under setting [10] is 102 % of control; the T/C (dose: 100.0 mg/kg/injection, schedule: Q01DX005 (ip), vehicle: saline with Tween-80) was 114 % of control; the T/C (dose: 200.0 mg/kg/injection, schedule: Q01DX005 (ip), vehicle: saline with Tween-80) was 98 % of control.

Consider `COc1cccc2c1C(=O)c1c(O)c3c(c(O)c1C2=O)CC(O)(/C(C)=N/NC(=O)CCCCCCCCC(=O)N/N=C(\C)C1(O)Cc2c(O)c4c(c(O)c2C(OC2CC(N)C(O)C(C)O2)C1)C(=O)c1c(OC)cccc1C4=O)CC3OC1CC(N)C(O)C(C)O1` (centres undefined), for which the T/C by setting is: (dose: 3.13 mg/kg/injection, schedule: Q01DX009 (ip), vehicle: water) 155 % of control; (dose: 6.25 mg/kg/injection, schedule: Q01DX009 (ip), vehicle: water) 174 % of control; (dose: 12.5 mg/kg/injection, schedule: Q01DX009 (ip), vehicle: water) 221 % of control; (dose: 25.0 mg/kg/injection, schedule: Q01DX009 (ip), vehicle: water) 99 % of control.

In the case of `Cc1cc(Cl)ccc1NC(=O)Oc1nc2ccccc2o1`, the T/C was 104 % of control and 96 % of control (dose: 12.5 mg/kg/injection, schedule: Q01DX009 (ip), vehicle: saline with Tween-80); 99 % of control and 101 % of control under setting [7]; 111 % of control and 96 % of control under setting [4]; 101 % of control and 112 % of control under setting [5].

Turning to `COc1ccc(Cc2c3cc(OC)c(OC)cc3cc[n+]2CC(=O)c2ccc(F)cc2)cc1OC`, the T/C (dose: 25.0 mg/kg/injection, schedule: Q01DX005 (ip), vehicle: Klucel (hydroxypropylcellulose) (HPC)) is 108 % of control and the T/C under setting [11] was 100 % of control.

As for `CCC(c1ccc(O)cc1)C(CC)c1ccc(OCCN)cc1` (centres undefined), the T/C under setting [12] is 111 % of control; the T/C under setting [8] was 103 % of control and 121 % of control; the T/C under setting [9] was 100 % of control.

As to `Oc1ccccc1CNc1ncc(Cl)cc1Cl`, the T/C reads like this: under setting [4], 100 % of control; under setting [5], 88 % of control; under setting [6], 94 % of control.

For `Cn1c(=S)sc2nc3ccccc3n2c1=S`, the T/C under setting [12] was 117 % of control, the T/C under setting [8] was 121 % of control and the T/C under setting [9] was 108 % of control.

Regarding `CC(CN(C)C)C(/C=C/c1ccc(Cl)c(Cl)c1)=N\Nc1ccccc1` (centres undefined), the T/C by setting is: under setting [8], 87 % of control; under setting [9], 93 % of control; under setting [13], 87 % of control.

`[N-]=[N+]=Nc1ccccc1C(=O)NCCCNC(=O)c1ccccc1N=[N+]=[N-]`: the T/C by setting is: (dose: 12.5 mg/kg/injection, schedule: Q01DX005 (ip), vehicle: saline with Tween-80) 91 % of control; (dose: 25.0 mg/kg/injection, schedule: Q01DX005 (ip), vehicle: saline with Tween-80) 87 % of control; under setting [10], 86 % of control.

In the case of `Cc1cc([N+](=O)[O-])cc(C)c1OC(=O)Nc1c(Cl)cccc1Cl`, the T/C is 101 % of control under setting [12]; 100 % of control and 95 % of control under setting [8]; 99 % of control and 100 % of control under setting [9]; 94 % of control under setting [13].

Regarding `COc1ccc(C2OC3=C(Nc4ccc([N+](=O)[O-])cc4N3)C2=O)c(OC)c1` (centres undefined), the T/C under setting [11] is 93 % of control; the T/C (dose: 100.0 mg/kg/injection, schedule: Q01DX005 (ip), vehicle: Klucel (hydroxypropylcellulose) (HPC)) was 101 % of control; the T/C (dose: 200.0 mg/kg/injection, schedule: Q01DX005 (ip), vehicle: Klucel (hydroxypropylcellulose) (HPC)) was 101 % of control.

Consider `COc1cc(C(O)C(CO)Oc2c(OC)cc(C3OCC4C(c5cc(OC)c(O)c(OC)c5)OCC34)cc2OC)ccc1O` (centres undefined), for which the T/C runs as follows: (dose: 5.0 mg/kg/injection, schedule: Q01DX005 (ip), vehicle: sodium bicarbonate) 107 % of control; (dose: 10.0 mg/kg/injection, schedule: Q01DX005 (ip), vehicle: sodium bicarbonate) 109 % of control; (dose: 20.0 mg/kg/injection, schedule: Q01DX005 (ip), vehicle: sodium bicarbonate) 106 % of control; (dose: 40.0 mg/kg/injection, schedule: Q01DX005 (ip), vehicle: sodium bicarbonate) 100 % of control.

In the case of `Cc1nccn1Cc1ccc(Cl)cc1Cl`, the T/C was 95 % of control under setting [8] and 95 % of control under setting [9].

For the compound `O=C1CC2NC(=O)C(CCCCN1)NC2=O` (centres undefined), the T/C is 100 % of control (dose: 1.5 mg/kg/injection, schedule: Q01DX009 (ip), vehicle: Klucel (hydroxypropylcellulose) (HPC)); 99 % of control (dose: 3.0 mg/kg/injection, schedule: Q01DX009 (ip), vehicle: Klucel (hydroxypropylcellulose) (HPC)); 97 % of control (dose: 6.0 mg/kg/injection, schedule: Q01DX009 (ip), vehicle: Klucel (hydroxypropylcellulose) (HPC)); 109 % of control (dose: 12.0 mg/kg/injection, schedule: Q01DX009 (ip), vehicle: Klucel (hydroxypropylcellulose) (HPC)).

Turning to `CC(C)COP(=O)([O-])OCC[N+](C)(C)C`, the T/C runs as follows: (dose: 100.0 mg/kg/injection, schedule: Q01DX001 (ip), vehicle: Klucel (hydroxypropylcellulose) (HPC)) 104 % of control; (dose: 200.0 mg/kg/injection, schedule: Q01DX001 (ip), vehicle: Klucel (hydroxypropylcellulose) (HPC)) 98 % of control; (dose: 400.0 mg/kg/injection, schedule: Q01DX001 (ip), vehicle: Klucel (hydroxypropylcellulose) (HPC)) 100 % of control.
